Reference: PubChem BioAssay (NCI)
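Abbreviation: GI50, concentration required for 50% inhibition of growth. TGI: total growth inhibition.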

Key:
Assay in all cases: growth of human tumour cells (NCI), 384-well format
NCI-H522 lung = test system: NCI-H522 lung
MOLT-4 leukemia = test system: MOLT-4 leukemia
SNB-75 CNS = test system: SNB-75 CNS
OVCAR-5 ovarian = test system: OVCAR-5 ovarian
M14 melanoma = test system: M14 melanoma
PC-3 prostate = test system: PC-3 prostate
NCI-H226 lung = test system: NCI-H226 lung
SNB-19 CNS = test system: SNB-19 CNS
UO-31 renal = test system: UO-31 renal
MDA-MB-468 breast = test system: MDA-MB-468 breast
ACHN renal = test system: ACHN renal
U251 glioblastoma = test system: U251 glioblastoma
HCT-15 colon = test system: HCT-15 colon
SK-MEL-2 melanoma = test system: SK-MEL-2 melanoma
MALME-3M melanoma = test system: MALME-3M melanoma
KM12 colon = test system: KM12 colon
SF-295 CNS = test system: SF-295 CNS
RPMI-8226 leukemia = test system: RPMI-8226 leukemia
SW-620 colon = test system: SW-620 colon
NCI-H322M lung = test system: NCI-H322M lung
A549 NSCLC = test system: A549 NSCLC
UACC-257 melanoma = test system: UACC-257 melanoma
SF-268 CNS = test system: SF-268 CNS
HOP-62 NSCLC = test system: HOP-62 NSCLC
A498 renal = test system: A498 renal
HT29 colon = test system: HT29 colon
BT-549 breast = test system: BT-549 breast
CAKI-1 renal = test system: CAKI-1 renal
SR leukemia = test system: SR leukemia
HOP-92 NSCLC = test system: HOP-92 NSCLC

## O=[N+]([O-])c1ccc(Nc2ccccc2-c2ccccc2)c2nonc12
NCI-H522 lung
  GI50: 9.27 µM
  TGI: 22.9 µM
MOLT-4 leukemia
  GI50: 12.8 µM
  TGI: 25.6 µM
SNB-75 CNS
  GI50: 14.1 µM
  TGI: 34 µM
OVCAR-5 ovarian
  GI50: 15.8 µM
  TGI: 36.9 µM
M14 melanoma
  GI50: 13.9 µM
  TGI: 30.9 µM
PC-3 prostate
  GI50: 12.8 µM
  TGI: 27 µM
NCI-H226 lung
  GI50: 11.2 µM
  TGI: 23.6 µM
SNB-19 CNS
  GI50: 12.9 µM
  TGI: 35.1 µM
UO-31 renal
  GI50: 13 µM
  TGI: 27.5 µM
MDA-MB-468 breast
  GI50: 3.96 µM
  TGI: 15.4 µM
ACHN renal
  GI50: 15.6 µM
  TGI: 34.2 µM
U251 glioblastoma
  GI50: 11.2 µM
  TGI: 25.7 µM
HCT-15 colon
  GI50: 14.3 µM
  TGI: 29.2 µM
SK-MEL-2 melanoma
  GI50: 23 µM
  TGI: 37.9 µM
MALME-3M melanoma
  GI50: 16.8 µM
  TGI: 36.3 µM
KM12 colon
  GI50: 16.4 µM
  TGI: 33 µM
SF-295 CNS
  GI50: 10.1 µM
  TGI: 22.9 µM
RPMI-8226 leukemia
  GI50: 7.48 µM
  TGI: 20 µM
SW-620 colon
  GI50: 16.4 µM
  TGI: 35.7 µM
NCI-H322M lung
  GI50: 17.5 µM
  TGI: 37.3 µM
A549 NSCLC
  GI50: 14.1 µM
  TGI: 30.9 µM
UACC-257 melanoma
  GI50: 16.5 µM
  TGI: 36.1 µM
SF-268 CNS
  GI50: 15.6 µM
  TGI: 34.1 µM
HOP-62 NSCLC
  GI50: 13.7 µM
  TGI: 28.4 µM
A498 renal
  GI50: 14.9 µM
  TGI: 32.3 µM
HT29 colon
  GI50: 15.9 µM
  TGI: 33.8 µM
BT-549 breast
  GI50: 17.1 µM
  TGI: 32.2 µM
CAKI-1 renal
  GI50: 14.5 µM
  TGI: 33.3 µM
SR leukemia
  GI50: 19 µM
  TGI: 33.3 µM
HOP-92 NSCLC
  GI50: 10.5 µM
